The values that follow come from PMC6749294, “Comparison of the Utility of RP-TLC Technique and Different Computational Methods to Assess the Lipophilicity of Selected Antiparasitic, Antihypertensive, and Anti-inflammatory Drugs” (Molecules, 2019).

Molecules are shown by their SMILES. Like-named read-outs stand apart in the source and are kept apart here.

The conditions of series [1]: n-octanol-water, cited from earlier work.
Series [2] in a line: RP-TLC lipophilicity on RP-18F254 plates (Soczewiński-Wachtmeister's and Ościk's equations). It counts as physicochemical. The settings on record: for RMWO(m) / RMWO(a): Ościk's equation; for RMWO(m) / RMWS(m) / φ0(m): methanol-water mobile phase; for RMWO(m) / RMWS(a) / RMWS(m) / RMWO(a): silica gel RP-18F254; for RMWS(a) / RMWS(m): Soczewiński-Wachtmeister's equation; for RMWS(a) / φ0(a) / RMWO(a): acetone-water mobile phase; for φ0(a) / φ0(m): φ0 = RMWS/S (Equation 6). As for the experimental part: The chromatographic analysis was carried on RP-18F254 plates (Art.1.05559, E. Merck, Darmstadt, Germany). The solutions of the investigated compounds were spotted separately onto chromatographic plates using precise micropipettes in a quantity of 5 µL each.
The chromatograms were developed using the mixtures of methanol-water and acetone-water in different volume compositions, as follows:
For antiparasitic drugs: • - the content of methanol was gradually varied by 10% (v/v) from 20–100 (%, v/v), • - the content of acetone was gradually varied by 10% (v/v) from 10–100 (%, v/v).
In the case of antihypertensive drugs, the content of methanol and acetone was gradually varied by 5% (v/v) from 60–100 (%, v/v).
For non-steroidal anti-inflammatory drugs: • - the content of methanol was gradually varied by 5% (v/v) from 60–100 (%, v/v), • - the content of acetone was gradually varied by10% (v/v) from 20–100 (%, v/v).
Next, the chamber was saturated with solvent vapor for 20 min. The chromatograms were developed at room temperature, e.g., 22 ± 1 °C. The development distance was 75 mm. The plates were dried at room temperature, e.g., 22 ± 1 °C. Each chromatogram was done in triplicate.
Densitometric scanning was done using a TLC Scanner 3 with WinCATS 1.4.2 software manufactured by Camag (Muttenz, Switzerland) in the reflectance/absorbance mode.
Densitometric scanning was performed at a respective absorption maximum for the analyzed drugs. The slit dimensions were 10.00 × 0.40 mm, Macro; the optimized optical system was light; the scanning speed was 20 mm/s; the data resolution was 100 μm/step; the measurement type was remission; the measurement mode was absorption; and the optical filter was second order. Each track was scanned three times, and a baseline correction (lowest slope) was used.
In order to determine the lipophilicity parameter based on Soczewiński-Wachtmeister′s procedure, the RF values obtained under the applied chromatographic conditions were converted into RM values according to the expression:(4) RM=log1/RF−1 The linear relationship between RM and the volume content of methanol and acetone in the mobile phase (φ) permits an extrapolation of the calculated RM values to the zero concentration of methanol and acetone in accordance with Soczewiński-Wachtmeister′s Equation (5). […] (5) RM=RMWS−Sφ where: RM is the RM value of the studied compound, RMWS is the RM value extrapolated to zero concentration of methanol and acetone (organic modifier) in the used mobile phase, i.e., methanol-water and acetone-water, respectively, S is the slope of the regression plot (see Supplementary Materials), and φ is the volume fraction of methanol and acetone in the mobile phase. In addition to this, on the basis of the said plot, i.e., Soczewiński-Wachtmeister′s equation, another chromatographic descriptor (φ0) has been calculated according to the following formula (Equation (6)): (6) φ0 = RMWS/S where: RMWS is the chromatographic parameter obtained by using Soczewiński-Wachtmeister’s equation in accordance with Equation (5), and S is the regression slope.
The measurable lipophilicity value expressed as RMWO was determined according to Ościk’s equation [29, 30, 32]:(7) Gxorg=xorg1−xorg/RM−xorgRMorg−1−xorgRMWO=axorg+b where: RM, RMorg, and RMWO are the solute retention factors in the mixed mobile phase, pure organic solvent, and water, respectively; xorg is the molar fraction of the organic solvent in the mobile phase; a and b are constants in the linear correlation between G(xorg) and xorg in the used mobile phase.

Series [3] can be described thus: Experimental n-octanol-water partition coefficient (logPexp) from literature and databases. Format: physicochemical. The settings on record: average of the differing literature logPexp values (± spread). The text has this: The next stage of this paper was a comparison of all obtained RMWS and RMWO parameters calculated using […] equations with theoretical and experimental logP values obtained in an n-octanol-water system.

Series [4] in a line: Prediction of logPexp from φ0(a) with Equation (3). Format: physicochemical. The note with it: chromatography with acetone-water mobile phase; calculated from φ0(a) with Equation (3); read-out: predicted logPexp. The text has this: The continuation of our lipophilicity study of fifteen biocompounds belonging to the three groups of drugs and the determination of another lipophilicity descriptor, namely φ0, in accordance with Equation (6), allowed us to obtain the two new lipophilicity parameters φ0(a) and φ0(m) for a proper used mobile phase, i.e., acetone-water (a) and methanol-water (m), respectively. What is important is that the calculation of this parameter was possible because a satisfactory linear relationship between both, i.e., the intercept and slope (RMWS and S), in each obtained Soczewiński-Wachtmeister’s equation was achieved (r > 0.98). In order to estimate the utility of these parameters for the prediction of the theoretical as well as experimental parameter of the lipophilicity of a large group of investigated compounds, a correlation matrix between all previously described (thus chromatographic) parameters, as well as the computed and experimental partition coefficient, was done. The results of the correlation analysis indicate that among all φ0 values the best is the one obtained for acetone-water, which is to say φ0(a). […]
This fact confirms the potential utility of the additionally calculated chromatographic parameter φ0(a) to determine the partition coefficient of all examined compounds. It can be very useful in the case of the lack of this value, like for example for the experimental logP of nilvadipine, lacidipine and carprofen. A test was performed on Equation (3) to determine the values of logPexp for the three abovementioned compounds. The results of the predicted logPexp were: 3.65 for nilvadipine, 3.96 for lacidipine and 3.54 for carprofen, respectively. It can be observed that the newly obtained logPexp values are in good agreement with the other previously described theoretical logP of these compounds. They are placed in the similar range of logP values.

Details of series [5]: method as in PMID 12972078. The note with it: RP-HPLC, cited from earlier work; for log kwODS: ODS column μBondapak C18; for log kw IAM: immobilized artificial membrane (IAM.PC.MG) column.
For series [6] the following is noted: cited from earlier work; for Rm0: RP-18F254 plates, acetonitrile-water; for logP: calculated from regression curve Rm0 = f(logP).
On the set-up of series [7]: method as in PMID 9809446. The note with it: methanol-water, cited from earlier work.
Setting [8] is: RP-18WF254 plates, Soczewiński-Wachtmeister's equation.

As for `COc1ccc2cc(CCC(C)=O)ccc2c1` [Nabumetone, nabumetone], the logPexp in series [1] (ref 43) was 3.08 [43]. In series [2], the “RMWO(m)” value turned out to be 2.52, the “RMWS(a)” value worked out at 3.08, the “RMWS(m)” value worked out at 3.12 and the “φ0(a)” value is on record as 0.787. Further, the “φ0(m)” value in series [2] was determined as 0.903.

In the case of `CCOC(=O)C1=C(C)NC(C)=C(C(=O)OC)C1c1cccc(Cl)c1Cl` (centres unmarked) [Felodipine, felodipine], the logPexp in series [1] (ref 6) was 3.86 [6]. In addition, the logPexp in series [1] (ref 41) was 4.46 [41]. In series [2], the “RMWO(a)” value amounted to 5.57, the “RMWO(m)” value came to 6.57, the “RMWS(a)” value was found to be 3.75 and the “RMWS(m)” value is 4.27. In addition, in series [2], the “φ0(a)” value is reported as 0.775 and the “φ0(m)” value amounted to 0.929. The compound also showed a logP in series [3] of 4.16.

Turning to `Cc1cccc(Nc2ccccc2C(=O)O)c1C` [Mefenamic Acid, mefenamic acid], in series [1] (ref 39), the logPexp was 5.12 [39]. Besides, in series [2], the “RMWO(m)” value was determined as 3.74, the “RMWS(a)” value came to 2.61, the “RMWS(m)” value stood at 2.49 and the “φ0(a)” value was determined as 0.789. Also, in series [2], the “φ0(m)” value came out at 0.865.

As for `COC(=O)C1=C(C#N)NC(C)=C(C(=O)OC(C)C)C1c1cccc([N+](=O)[O-])c1` (centres unmarked) [Nilvadipine, nilvadipine], in series [2], the “RMWO(a)” value amounted to 6.28, the “RMWO(m)” value was 5.57, the “RMWS(a)” value is on record as 4.07 and the “RMWS(m)” value was 3.66. Moreover, in series [2], the “φ0(a)” value is given as 0.764 and the “φ0(m)” value came to 0.886. In addition, the chromatographic logP in series [4] was 3.65.

Turning to `CC(C(=O)O)c1cccc(C(=O)c2ccccc2)c1` (centres unmarked) [Ketoprofen, ketoprofen], in series [5], the “log kwODS” value is on record as 2.83 and the “log kw IAM” value was 1.02. Also, in series [2], the “RMWO(m)” value is reported as 3.76, the “RMWS(a)” value is given as 1.26, the “RMWS(m)” value was found to be 1.47 and the “φ0(a)” value was 0.640. Further, in series [2], the “φ0(m)” value turned out to be 0.687. Besides, in series [6], the Rm0 is 1.8491 and the logP was 2.66. Also, the RMO in series [7] (Nano-Sil CNF254 plates) is 2.31. Moreover, the RMO in series [7] (setting [8]) is recorded as 1.74.

As to `Cc1ncc([N+](=O)[O-])n1CC(C)O` (centres unmarked) [Secnidazole, secnidazole], the logPexp in series [1] (ref 33) was 0.22 [33]. Also, in series [2], the “RMWO(a)” value is recorded as 1.21, the “RMWO(m)” value is given as 1.72, the “RMWS(a)” value is listed as 0.95 and the “RMWS(m)” value is on record as 1.26.

On to `CCOC(=O)C1=C(C)NC(C)=C(C(=O)OCC)C1c1ccccc1/C=C/C(=O)OC(C)(C)C` [Lacidipine, lacidipine], for which, in series [2], the “RMWO(a)” value was 6.63, the “RMWO(m)” value amounted to 6.89, the “RMWS(a)” value was 4.51 and the “RMWS(m)” value amounted to 5.01. Moreover, in series [2], the “φ0(a)” value is on record as 0.793 and the “φ0(m)” value amounted to 0.937. Also, the chromatographic logP in series [4] was 3.96.

For `COC(=O)C1=C(C)NC(C)=C(C(=O)OC(C)C)C1c1cccc2nonc12` (centres unmarked) [Isradipine, isradipine], in series [1] (ref 6), the logPexp is 4.28 [6]. Also, in series [2], the “RMWO(a)” value was 5.67, the “RMWO(m)” value came to 5.08, the “RMWS(a)” value amounted to 3.54 and the “RMWS(m)” value was determined as 3.13. Further, in series [2], the “φ0(a)” value is recorded as 0.751 and the “φ0(m)” value is listed as 0.837.

On to `CCCCC1C(=O)N(c2ccccc2)N(c2ccccc2)C1=O` [Phenylbutazone, phenylbutazone], for which, in series [2], the “RMWO(m)” value turned out to be 3.54, the “RMWS(a)” value was determined as 1.72 and the “RMWS(m)” value is reported as 1.84. Besides, the RMO in series [7] (Nano-Sil CNF254 plates) was 1.50. Besides, the RMO in series [7] (setting [8]) is 2.71.

Regarding `CC(C(=O)O)c1ccc(-c2ccccc2)c(F)c1` (centres unmarked) [Flurbiprofen, flurbiprofen], in series [5], the “log kwODS” value is given as 2.91 and the “log kw IAM” value is reported as 1.58. Moreover, the logPexp in series [1] (ref 36) is 4.16 [36]. Further, the logPexp in series [1] (ref 42) was 3.84 [42]. In addition, in series [2], the “RMWO(m)” value is listed as 2.26, the “RMWS(a)” value stood at 1.87, the “RMWS(m)” value was determined as 1.98 and the “φ0(a)” value is listed as 0.930. For the same compound, the “φ0(m)” value in series [2] amounted to 0.771. Besides, in series [6], the Rm0 is reported as 2.5076 and the logP was 3.82. Moreover, the logP in series [3] came out at 4.

For `Cc1ncc([N+](=O)[O-])n1CC(O)CCl` (centres unmarked) [Ornidazole, ornidazole], in series [2], the “RMWO(a)” value is listed as 1.42, the “RMWO(m)” value was found to be 1.92, the “RMWS(a)” value was 1.22 and the “RMWS(m)” value stood at 1.46. In series [2], the “φ0(a)” value stood at 0.565 and the “φ0(m)” value is listed as 0.676. Also, the logP in series [3] is 0.41.

Consider `COc1ccc2c(c1)c(CC(=O)O)c(C)n2C(=O)c1ccc(Cl)cc1` [Indomethacin, indomethacin], for which the logPexp in series [1] (ref 36) is 4.27 [36]. Besides, the logPexp in series [1] (ref 42) was 4.10 [42]. Besides, in series [2], the “RMWO(m)” value was found to be 4.08, the “RMWS(a)” value came to 2.57, the “RMWS(m)” value amounted to 2.19 and the “φ0(a)” value is on record as 0.747. In addition, the “φ0(m)” value in series [2] worked out at 0.790. Also, the RMO in series [7] (Nano-Sil CNF254 plates) was 0.52. Also, in series [7] (setting [8]), the RMO is on record as 2.62.

Turning to `CCS(=O)(=O)CCn1c([N+](=O)[O-])cnc1C` [Tinidazole, tinidazole], in series [2], the “RMWO(a)” value turned out to be 1.11, the “RMWO(m)” value stood at 1.69, the “RMWS(a)” value turned out to be 0.89 and the “RMWS(m)” value was found to be 1.17. Also, in series [2], the “φ0(a)” value is given as 0.463 and the “φ0(m)” value stood at 0.612. In series [3], the logP amounted to 0.18.
